Test results as given in ChEMBL document CHEMBL1142231, “Proline-rich tyrosine kinase 2 regulates osteoprogenitor cells and bone formation, and offers an anabolic treatment approach for osteoporosis” (Proc Natl Acad Sci U S A, 2007).
The source made the active and inactive calls. The rule behind the calls is not given here.

Columns and labels:
Rattus norvegicus [1] = test: Effect on bone metabolism in po dosed ovariectomized Sprague-Dawley rat assessed as bone formation rate of proximal tibia cancellous bone; type: functional
Rattus norvegicus [2] = test: Effect on bone turnover in po dosed ovariectomized Sprague-Dawley rat assessed as mineralizing surface of proximal tibia cancellous bone; type: functional
Rattus norvegicus [3] = test: Prevention of bone loss in po dosed ovariectomized Sprague-Dawley rat assessed as osteoclast surface of proximal tibia cancellous bone; type: functional
Rattus norvegicus [4] = test: Increase in bone formation in ovariectomized Sprague-Dawley rat assessed as mineralizing surface of proximal tibia cancellous bone at 10 mg/kg, po administered daily for 28 days; type: functional
Mesenchymal stem cell = test: Increase in alkaline phosphatase activity in human mesenchymal stem cells; type: functional, cell-based
Rattus norvegicus [5] = test: Increase in bone formation in ovariectomized Sprague-Dawley rat assessed as mineral apposition rate of proximal tibia cancellous bone at 30 mg/kg, po administered daily for 28 days; type: functional
Rattus norvegicus [6] = test: Prevention of bone loss in ovariectomized Sprague-Dawley rat assessed as osteoclast surface of proximal tibia cancellous bone at 10 mg/kg, po administered daily for 28 days; type: functional
Rattus norvegicus [7] = test: Increase in bone formation in ovariectomized Sprague-Dawley rat assessed as mineralizing surface of proximal tibia cancellous bone at 30 mg/kg, po administered daily for 28 days; type: functional
Rattus norvegicus [8] = test: Effect on bone metabolism in ovariectomized Sprague-Dawley rat assessed as bone formation rate of proximal tibia cancellous bone at 30 mg/kg, po administered daily for 28 days; type: functional
Rattus norvegicus [9] = test: Effect on bone resorption in ovariectomized Sprague-Dawley rat assessed as serum C-telopeptide degradation product at 30 mg/kg, po administered daily for 28 days; type: functional, organism-based; parameters: dose 30 mg/kg
Rattus norvegicus [10] = test: Effect on bone resorption in ovariectomized Sprague-Dawley rat assessed as serum C-telopeptide degradation product at 10 mg/kg, po administered daily for 28 days; type: functional, organism-based; parameters: dose 10 mg/kg
Rattus norvegicus [11] = test: Effect on bone metabolism in ovariectomized Sprague-Dawley rat assessed as bone formation rate of proximal tibia cancellous bone at 10 mg/kg, po administered daily for 28 days; type: functional
Rattus norvegicus [12] = test: Prevention of bone loss in ovariectomized Sprague-Dawley rat assessed as osteoclast surface of proximal tibia cancellous bone at 30 mg/kg, po administered daily for 28 days; type: functional
Rattus norvegicus [13] = test: Increase in bone formation in ovariectomized Sprague-Dawley rat assessed as mineral apposition rate of proximal tibia cancellous bone at 10 mg/kg, po administered daily for 28 days; type: functional

SMILES | Activity (Rattus norvegicus [1]) [microm2/micrometer/d] | Activity (Rattus norvegicus [2]) [%] | Activity (Rattus norvegicus [3]) [%] | Activity (Rattus norvegicus [4]) [%] | Activity (Mesenchymal stem cell) | Activity (Rattus norvegicus [5]) [micrometer/day] | Activity (Rattus norvegicus [6]) [%] | Activity (Rattus norvegicus [7]) [%] | Activity (Rattus norvegicus [8]) [microm2/micrometer/d] | Activity (Rattus norvegicus [9]) | Activity (Rattus norvegicus [10]) | Activity (Rattus norvegicus [11]) [microm2/micrometer/d] | Activity (Rattus norvegicus [12]) [%] | Activity (Rattus norvegicus [13]) [micrometer/day]
C#CC1(O)CC[C@H]2[C@@H]3CCc4cc(O)ccc4[C@H]3CC[C@@]21C (single isomer, unassigned) [ETHINYL ESTRADIOL] | 77.91 | 20.22 | 4.55 |  |  |  |  |  |  |  |  |  |  | 
CN(c1ccccc1CNc1nc(Nc2ccc3c(c2)CC(=O)N3)ncc1C(F)(F)F)S(C)(=O)=O.Cl |  |  |  | 36.81 | Active | 1.96 | 7.83 | 40.6 | 291.43 | inactive | inactive | 240.17 | 6.13 | 1.77
